Earlier results, collected in patent US12263157B2, “Aldosterone synthase inhibitors for treating chronic kidney disease” (Boehringer Ingelheim International GmbH, priority 2021, dated 2025).

Assays:
[1] = test system: patients with diabetic kidney disease; settings: on top of standard of care
[2] = test system: patients with heart failure with reduced ejection fraction; settings: overall trial population
[3] = test system: people with type 2 diabetes

Row | SMILES | relative risk reduction for the composite endpoint of doubling of serum creatinine, ESRD or renal/CV death [1] | reduction of the risk of the exploratory composite renal endpoint (chronic dialysis, kidney transplant, or sustained reduction in eGFR) [2] | HR for the composite outcome of doubling of creatinine, the need to start kidney replacement therapy, or renal death ([3]; exploratory analysis, 95% CI 0.40-0.75) | reduction of the incidence of the composite outcome of doubling of creatinine, the need to start kidney replacement therapy, or renal death ([3]; exploratory analysis, people with type 2 diabetes) | risk of hyperkalaemia or acute kidney injury ([3]; regardless of baseline ACEi or ARB use)
1 | Cc1ccc([C@@H]2O[C@H](CO)[C@@H](O)[C@H](O)[C@H]2O)cc1Cc1ccc(-c2ccc(F)cc2)s1 [canagliflozin] | 30% |  |  |  | 
2 | OC[C@H]1O[C@@H](c2ccc(Cl)c(Cc3ccc(O[C@H]4CCOC4)cc3)c2)[C@H](O)[C@@H](O)[C@@H]1O [empagliflozin] |  | 50% | 0.54 | 46% | no evidence of an increased risk
